Paper PMC4706877, “Antibacterial and Cytotoxic Activity of Compounds Isolated from Flourensia oolepis” (Evidence-based Complementary and Alternative Medicine : eCAM, 2015)

Key:
CCRF-CEM cells = assay: Apoptosis by Annexin V/PI double staining; assay type: cell-based, human; conditions: 2 × IC50, 72 h
Procedure: (§1) After incubation, cells were harvested, washed, and suspended in cold PBS. The proportion of cells undergoing apoptosis was examined by double staining using allophycocyanin (APC) conjugated Annexin-V (BD Pharmingen, USA) and propidium iodide (Sigma-Aldrich CO, USA). Over the following hour, the fluorescence of ten thousand cells, including that of control groups, was assayed and populations were analyzed with FlowJo software version 7.6.2 (Tree Star, Inc., OR, USA). Percentages of Annexin-V positive cells (PI− or PI+) indicate early or late apoptosis, respectively.

K562 cells = assay: Apoptosis by Annexin V/PI double staining; assay type: cell-based, human; conditions: 2 × IC50, 72 h
Procedure: as §1

O=C(/C=C/c1ccccc1)c1ccc(O)cc1O [Compound 1, 2′,4′-dihydroxychalcone]
early and late apoptotic cells (CCRF-CEM cells): 26.7%
early and late apoptotic cells (K562 cells): 68.7%
